Assay results: patent US8247211B2, “Glycopeptide antibiotics” (American Cyanamid Company, priority 2001, dated 2012)
Converted amounts (≈) assume the structure as drawn.

Assays:
Test in all cases: In vitro antibacterial evaluation: minimum inhibitory concentration (MIC), broth dilution method
Assay type in all cases: cell-based
Settings in all cases: 18 hours at 35° C.
Enterococcus sp. = tested on: Enterococcus sp.
Method in brief: (§1)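 Test strains, among them recent clinical isolates carrying methicillin, penicillin and/or vancomycin resistance, were inoculated at 5×10^5 CFU/mL. A broth dilution series spanning 64-0.06 μg/mL in Muller-Hinton II […] (NCCLS M7-A2) defined the MIC as the lowest growth-inhibiting concentration.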

Streptococcus sp. = tested on: Streptococcus sp.
Method in brief: as §1

Escherichia coli = tested on: Escherichia coli
Method in brief: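 NCCLS M7-A2 broth dilution with Mueller-Hinton II, testing 64-0.06 μg/mL antibiotic against 5×10^5 CFU/mL inocula. Test strains include recent methicillin-, penicillin- or vancomycin-resistant clinical isolates. MIC is the lowest concentration preventing growth.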

Staphylococcus sp. = tested on: Staphylococcus sp.
Method in brief: as §1

Compound: CCCCCNC(=O)OC1C(CO)OC(OC2C(CO)OC(Oc3ccc(CC4NC(=O)C(C(C)c5ccccc5)NC(=O)CNC(=O)C(CO)NC(=O)C(C(O)C5CNC(=N)N5C5OC(CO)C(O)C(O)C5O)NC(=O)C(C(O)C5CNC(=N)N5)NC4=O)cc3)C(O)C2O)C(O)C1O (stereo not drawn) [Example 251, α-O-[(Pentylamino)carbonyl]-cyclo[glycyl-β-methylphenylalanyl-O-(4-O-hexopyranosylhexopyranosyl)tyrosyl-3-(2-iminoimidazolidin-4-yl)seryl-3-(3-hexopyranosyl-2-iminoimidazolidin-4-yl)serylseryl]]
- MIC Enterococcus avium (GC 4558) (Enterococcus sp.; Enterococcus avium (GC 4558)): >64 µg/mL
- MIC Enterococcus faecalis (ATCC 29212) (Enterococcus sp.; Enterococcus faecalis (ATCC 29212)): >64 µg/mL
- MIC Enterococcus faecalis (GC 2242) (Enterococcus sp.; Enterococcus faecalis (GC 2242)): >64 µg/mL
- MIC Enterococcus faecalis (GC 4552) (Enterococcus sp.; Enterococcus faecalis (GC 4552)): >64 µg/mL
- MIC Enterococcus faecalis (GC 4553) (Enterococcus sp.; Enterococcus faecalis (GC 4553)): >64 µg/mL
- MIC Enterococcus faecalis (GC 4554) (Enterococcus sp.; Enterococcus faecalis (GC 4554)): >64 µg/mL
- MIC Enterococcus faecium (GC 2243) (Enterococcus sp.; Enterococcus faecium (GC 2243)): >64 µg/mL
- MIC Enterococcus faecium (GC 4556) (Enterococcus sp.; Enterococcus faecium (GC 4556)): >64 µg/mL
- MIC Enterococcus faecium (GC 4557) (Enterococcus sp.; Enterococcus faecium (GC 4557)): 64 µg/mL (≈ 45.4 µM)
- MIC Streptococcus agalactiae (GC 4564) (Streptococcus sp.; Streptococcus agalactiae (GC 4564)): >64 µg/mL
- MIC Streptococcus pneumoniae (GC 4565) (Streptococcus sp.; Streptococcus pneumoniae (GC 4565)): 64 µg/mL (≈ 45.4 µM)
- MIC Streptococcus pyogenes (ID-3187) (Streptococcus sp.; Streptococcus pyogenes (ID-3187)): 64 µg/mL (≈ 45.4 µM)
- MIC Escherichia coli (ATCC 25922) (Escherichia coli; Escherichia coli (ATCC 25922)): >64 µg/mL
- MIC Escherichia coli (GC 4559) (Escherichia coli; Escherichia coli (GC 4559)): >64 µg/mL
- MIC Escherichia coli (GC 4560) (Escherichia coli; Escherichia coli (GC 4560)): 4 µg/mL (≈ 2.84 µM)
- MIC Coagulase Negative Staphylococcus (GC 4547) (Staphylococcus sp.; Coagulase Negative Staphylococcus (GC 4547)): >64 µg/mL
- MIC Coagulase Negative Staphylococcus (GC 4548) (Staphylococcus sp.; Coagulase Negative Staphylococcus (GC 4548)): >64 µg/mL
- MIC Coagulase Negative Staphylococcus (GC 4549) (Staphylococcus sp.; Coagulase Negative Staphylococcus (GC 4549)): >64 µg/mL
- MIC Coagulase Negative Staphylococcus (GC 4551) (Staphylococcus sp.; Coagulase Negative Staphylococcus (GC 4551)): >64 µg/mL
- MIC Coagulase Negative Staphylococcus (ID-3941) (Staphylococcus sp.; Coagulase Negative Staphylococcus (ID-3941)): 64 µg/mL (≈ 45.4 µM)
- MIC Staphylococcus aureus (ATCC 29213) (Staphylococcus sp.; Staphylococcus aureus (ATCC 29213)): >64 µg/mL
- MIC Staphylococcus aureus (GC 1131) (Staphylococcus sp.; Staphylococcus aureus (GC 1131)): >64 µg/mL
- MIC Staphylococcus aureus (GC 4541) (Staphylococcus sp.; Staphylococcus aureus (GC 4541)): >64 µg/mL
- MIC Staphylococcus aureus (GC 4542) (Staphylococcus sp.; Staphylococcus aureus (GC 4542)): >64 µg/mL
- MIC Staphylococcus aureus (GC 4544) (Staphylococcus sp.; Staphylococcus aureus (GC 4544)): >64 µg/mL
- MIC Staphylococcus aureus (GC 4545) (Staphylococcus sp.; Staphylococcus aureus (GC 4545)): >64 µg/mL
- MIC Staphylococcus aureus-SMITH (GC 4543) (Staphylococcus sp.; Staphylococcus aureus-SMITH (GC 4543)): >64 µg/mL
- MIC Staphylococcus haemolyticus (GC 4546) (Staphylococcus sp.; Staphylococcus haemolyticus (GC 4546)): >64 µg/mL
